Experimental data reported in patent US12162877B2, “Human dihydroorotate dehydrogenase (hDHODH) inhibitors and their use in targeting oncological diseases sensitive to pyrimidine starvation” (DRUG DISCOVERY AND CLINIC S.R.L., priority 2018, dated 2024).
≈ marks a conversion by molar mass, not a printed value. Like-named read-outs stand apart in the source and are kept apart here. Values belong to the compound of their own block, whether it stands above or below them.

How the values were obtained:
Serum stability = assay type: in vitro ADME; conditions: 37° C.
[1] = system: MDA MB231 (breast cancer cells); experiment: Cytotoxicity in human cancer cell lines, MDA MB231; assay type: cell-based; conditions: MDA-MB-231, MDA MB231, 72 h
Text: (§1) In the last phase of their study, the present inventors evaluated the effects of our hDHODH inhibitors on a series of human cancer cell lines.

U937 [2] = experiment: CFSE-based cytotoxic activity assay, U937; assay type: cell-based; conditions: U937, 0.01-10 μM, 3 days, FIG. 5A
[3] = system: PANC-1 (pancreatic cancer cells); experiment: Cytotoxicity in human cancer cell lines, PANC-1; assay type: cell-based; conditions: PANC-1, 72 h
Text: as §1

U937 [4] = experiment: Differentiation assay, U937 (CD11b); assay type: cell-based, human
Protocol: (§2) Cell lines and drug treatment.
(§3) Flow cytometric analysis. The expression of CD11b (PE-conjugated BD Bioscience San Jose, CA, USA), and CD14 (FITC-conjugated Beckam Coulter CA, USA), cell surface molecules was determined by flow cytometry analysis. […] Samples were acquired on a FACS Calibur and dead cells were excluded from the analyses, according to the use of propidium iodide (Sigma-Aldrich, Milan, Italy). Data were processed using Kaluza software version 1.2 (Beckman Coulter Fullerton, CA).
(§4) Differentiation assay. 1×10^4 cells (THP1 and U937), were plated in 96 well round-bottom plates and DHODH inhibitors were added, from 0.1 μM to 10 μM, to a volume of 200 μl of medium. The differentiation kinetics was monitored from day 1 to day 4 for U937, and to day 5 for THP1. Cells were washed and either stained with CD11b (U937), or with CD11b and CD14 (THP1), as described above. The differentiation assay was also performed in the presence of uridine 100 μM and analyzed on day 3

THP1 [5] = experiment: CFSE-based cytotoxic activity assay, THP1; assay type: cell-based; conditions: THP1, 0.01-10 μM, 3 days, FIG. 5A
PHA-stimulated PBMC [6] = experiment: Immunosuppression assay, PHA-stimulated PBMC proliferation; assay type: cell-based
THP1 [7] = experiment: Differentiation assay, THP1 (CD14); assay type: cell-based, human
Protocol: as §2, §3, §4

[8] = Protein binding in vitro (ultrafiltration); assay type: in vitro ADME; conditions: human serum protein binding
[9] = 24 h, pH 7.4
[10] = system: HEPG2 (liver hepatocellular cancer cells); experiment: Cytotoxicity in human cancer cell lines, HEPG2; assay type: cell-based
Text: as §1

Jurkat T cells [11] = experiment: Proliferation assay, Jurkat T cells (Hoechst 33258 DNA content); assay type: cell-based; conditions: 72 h
[12] = system: HCT-116 (colon cancer cells); experiment: Cytotoxicity in human cancer cell lines, HCT-116; assay type: cell-based; conditions: HCT-116, 72 h
Text: as §1

[13] = system: A2780 (ovarian cancer cells); experiment: Cytotoxicity in human cancer cell lines, A2780; assay type: cell-based; conditions: A2780, 72 h
Text: as §1

recombinant hDHODH = recombinant hDHODH (Homo sapiens (Human), UniProt Q02127); experiment: hDHODH inhibition assay (DCIP reduction); assay type: biochemical
Chain of recombinant hDHODH (Q02127 31-395): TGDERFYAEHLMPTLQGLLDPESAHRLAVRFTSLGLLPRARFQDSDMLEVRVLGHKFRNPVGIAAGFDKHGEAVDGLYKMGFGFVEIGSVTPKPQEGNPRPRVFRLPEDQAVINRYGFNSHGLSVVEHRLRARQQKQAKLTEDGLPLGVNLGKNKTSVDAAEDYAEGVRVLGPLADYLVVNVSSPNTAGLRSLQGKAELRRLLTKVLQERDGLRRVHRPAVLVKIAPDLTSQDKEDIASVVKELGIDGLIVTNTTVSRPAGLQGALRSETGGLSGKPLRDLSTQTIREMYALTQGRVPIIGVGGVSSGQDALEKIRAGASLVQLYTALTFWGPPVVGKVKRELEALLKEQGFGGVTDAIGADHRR
Protocol: Protein expression and purification. […] The vector produces hDHODH as an N-terminal GST-fusion protein. The plasmid pFN2A-hDHODH was transformed into BL21 (DE3), pyrD E. coli cells for protein production. Cells were grown at 37° C. in LB medium supplemented with 0.1 mM flavin mononucleotide. […] Triton X-100 was added to the lysate, to a final concentration of 1%, before centrifugation at 14000×g for 40 min at 4° C. The clarified supernatant was incubated with DNase I (Sigma Aldrich), for 30 min at room temperature, supplemented with 2 mM DTT and filtered through a 0.45 μm syringe filter. The GST-fused enzyme was purified from the bacterial lysate using affinity chromatography on immobilized glutathione-sepharose columns and fast protein liquid chromatography (FPLC). The GST tag was not removed for further studies.
hDHODH inhibition assay. Inhibitory activity was assessed by monitoring the reduction of 2,6-dichloroindophenol (DCIP), which is associated with the oxidation of dihydroorotate as catalyzed by the DHODH enzyme. The enzyme was preincubated for five minutes at 37° C. in Tris-buffer solution (pH 8.0), with coenzyme Q10 (100 μM), with the compounds to be tested used at different concentrations (final DMSO concentration 0.1% v/v), with DCIP (50 μM). The reaction was initiated by the addition of DHO (500 μM), and the reduction was monitored at λ=650 nm. […] Values are means±SE of three independent experiments.

[14] = log D (pH 7.4) shake-flask; assay type: physicochemical; conditions: n-octanol/PBS
Jurkat T cells [15] = experiment: Cytotoxicity assay, Jurkat T cells (CellTox green); assay type: cell-based; conditions: 72 h, concentration causing significant (≥30%) cytotoxic effect
PHA-stimulated PBMC [16] = conditions: inhibition of PHA-stimulated PBMC proliferation; value from ref. 29; read-out: Immunosuppression IC50 ± SE; cited from earlier work
[17] = with uridine, read-out: Cytotoxicity IC50 with Uridine
[18] = in vitro assay, means ± SE of three experiments, read-out: hDHODH IC50 ± SE
[19] = enzymatic assay, values in text, read-out: hDHODH IC50

Compound: Cc1c(-c2ccc(-c3ccccc3F)cc2)nc2ccc(F)cc2c1C(=O)O [Brequinar, brequinar]
% compound after 24 h in human serum (Serum stability): 98%
IC50 ([1]; read-out: Cytotoxicity IC50): 1300 nM
IC50 [1, 17]: > 100000 nM
cytotoxicity (U937 [2]): strong and concentration-dependent cytotoxicity
IC50 ([3]; read-out: Cytotoxicity IC50): 280 nM
IC50 [3, 17]: < 100 nM
myeloid differentiation, CD11b expression (U937 [4]; U937, FIG. 6A): strong differentiation
differentiation when uridine is added (U937 [4]; U937, uridine 100 μM, day 3, FIG. 6C): reversed
cytotoxicity (THP1 [5]): strong and concentration-dependent cytotoxicity
antiproliferative effect on PHA-activated PBMCs, times greater than teriflunomide (PHA-stimulated PBMC [6]): 10 times
myeloid differentiation, CD14 expression (THP1 [7]; THP1, FIG. 6B): strong differentiation
differentiation when uridine is added (THP1 [7]; THP1, uridine 100 μM, day 3, FIG. 6D): reversed
% bound [8]: 98.83%
Solubility in PBS with 2% DMSO [9]: 449 µM
IC50 ([10]; HEPG2, 72 h, with uridine, read-out: Cytotoxicity IC50 with Uridine): > 10000 nM
IC50 ([10]; HepG2, 72 h, read-out: Cytotoxicity IC50): 46 nM
IC50 (Jurkat T cells [11]; in the presence of 100 μM uridine, read-out: Proliferation IC50 ± SE + Uridine): 94200 ± 2080 nM
IC50 (Jurkat T cells [11]; read-out: Proliferation IC50 ± SE): 910 ± 70 nM
IC50 ([12]; read-out: Cytotoxicity IC50): 97 nM
IC50 [12, 17]: 3000 nM
IC50 ([13]; read-out: Cytotoxicity IC50): < 100 nM
IC50 [13, 17]: 15500 nM

Compound: Cn1nc(O)c(C(=O)Nc2c(F)c(F)c(-c3ccccc3)c(F)c2F)n1 [Compound 2]
IC50 (recombinant hDHODH; [18]): 45 ± 13 nM

Compound: O=C(Nc1c(F)c(F)c(-c2ccccc2)c(F)c1F)c1c(O)nn2ccccc12 [Compound 4, 2-Hydroxy-N-(2,3,5,6-tetrafluoro-[1,1′-biphenyl]-4-yl)pyrazolo[1,5-a]pyridine-3-carboxamide]
times more potent than teriflunomide (hDHODH) (recombinant hDHODH; enzymatic assay, ratio of IC50): 320 times

Compound: Cc1cccc2c(C(=O)Nc3c(F)c(F)c(-c4ccccc4)c(F)c3F)c(O)nn12 [Compound 5, 2-Hydroxy-7-methyl-N-(2,3,5,6-tetrafluoro-[1,1′-biphenyl]-4-yl)pyrazolo[1,5-a]pyridine-3-carboxamide]
IC50 (recombinant hDHODH; [19]): 4.3 nM

Compound: Cn1c(=O)c(C(=O)Nc2c(F)c(F)c(-c3ccccc3)c(F)c2F)c2ccccn21 [Compound 7, 1-Methyl-2-oxo-N-(2,3,5,6-tetrafluoro-[1,1′-biphenyl]-4-yl)-1,2-dihydropyrazolo[1,5-a]pyridine-3-carboxamide]
IC50 (recombinant hDHODH; [18]): > 5000 nM

Compound: Cc1cc(NC(=O)c2c(O)nn3ccccc23)ccc1Oc1ccccc1 [Compound 9, 2-Hydroxy-N-(3-methyl-4-phenoxyphenyl)pyrazolo[1,5-a]pyridine-3-carboxamide]
IC50 (recombinant hDHODH; [18]): 480 ± 31 nM

Second part, led by results:

IC50 (recombinant hDHODH; [19]): 760 nM
IC50 (recombinant hDHODH; [18]): 760 ± 136 nM
Compound: O=C(Nc1ccc(Oc2ccccc2)cc1)c1c(O)nn2ccccc12 [Compound 8, 2-Hydroxy-N-(4-phenoxyphenyl)pyrazolo[1,5-a]pyridine-3-carboxamide]

IC50 (recombinant hDHODH; [19]): 43 nM
IC50 (recombinant hDHODH; [18]): 43 nM
Compound: Cc1cc(Oc2ccccc2)c(C)cc1NC(=O)c1c(O)nn2ccccc12 [Compound 10, N-(2,5-Dimethyl-4-phenoxyphenyl)-2-hydroxypyrazolo[1,5-a]pyridine-3-carboxamide]

IC50 (recombinant hDHODH; [19]): 5.9 nM
Compound: O=C(Nc1c(F)c(F)c(-c2ccccc2)c(F)c1F)c1c(O)nn2c1CCCC2 [Compound 30, 2-Hydroxy-N-(2,3,5,6-tetrafluoro-[1,1′-biphenyl]-4-yl)-4,5,6,7-tetrahydropyrazolo[1,5-a]pyridine-3-carboxamide]

IC50 (recombinant hDHODH; [19]): 2 nM
logD [14]: > 3
Compound: O=C(Nc1c(F)c(F)c(-c2cccc(F)c2)c(F)c1F)c1c(O)nn2ccccc12 [Compound 32, 2-Hydroxy-N-(2,3,3′,5,6-pentafluoro-[1,1′-biphenyl]-4-yl)pyrazolo[1,5-a]pyridine-3-carboxamide]

IC50 (recombinant hDHODH; [19]): 2.3 nM
logD [14]: > 3
Compound: O=C(Nc1c(F)c(F)c(-c2cccc(C(F)(F)F)c2)c(F)c1F)c1c(O)nn2ccccc12 [Compound 33, 2-Hydroxy-N-(2,3,5,6-tetrafluoro-3′-(trifluoromethyl)-[1,1′-biphenyl]-4-yl)pyrazolo[1,5-a]pyridine-3-carboxamide]

Solubility in PBS [9]: 2692 µM (≈ 727 µg/mL)
Compound: C/C(O)=C(\C#N)C(=O)Nc1ccc(C(F)(F)F)cc1 [Teriflunomide, teriflunomide]
Cytotoxicity (effect ≥30%) (Jurkat T cells [15]): 53 ± 3 µM
IC50 (PHA-stimulated PBMC [16]): 54300 nM
